Data reported in patent publication US12318452B2, “Degraders of WEE1 kinase” (DANA-FARBER CANCER INSTITUTE, INC., priority 2018, dated 2025).

Experiments:
kinome (Wee1, PLK1) = test: KINOMEscan profiling; type: binding; conditions: 1 μM
CRBN−/− MOLT4 cells = test: CellTiter-Glo cell viability, 72 hours; type: cell-based
BT549 and HCC1806 cells = test: Image-based cell cycle assay in TNBC cell lines; conditions: data not shown
Method: (§1) HCC1806, BT549, and Kuramochi cells were maintained in RPMI (Corning®, Corning, NY) supplemented with 10% fetal bovine serum (FBS) (Life Technologies™, Carlsbad, CA) and 1% penicillin/streptomycin (Corning, Corning®, NY). OVCAR8 cells were maintained as above with the addition of 2 mM L-glutamine (Life Technologies™, Carlsbad, CA). MCF10A cells were maintained in a 1:1 mix of DMEM:F12 supplemented with 5% horse serum (Life Technologies™ Carlsbad, CA), 1% penicillin/streptomycin (Corning®, Corning, NY), 20 ng/ml EGF (Peprotech®, Rocky Hill, NJ), 500 ng/ml hydrocortisone (Sigma-Aldrich®, St. Louis, MO), 10 μg/ml insulin (Sigma-Aldrich®, St. Louis, MO), and 100 ng/ml cholera toxin (Sigma-Aldrich®, St. Louis, MO). COV362 cells were maintained in DMEM (Corning®, Corning, NY) supplemented with 10% FBS (Life Technologies™, Carlsbad, CA), 1% penicillin/streptomycin (Corning®, Corning, NY) and 2 mM L-glutamine (Life Technologies™, Carlsbad, CA). The OCE1 cells were maintained in FOMI (Wit-Fo) (PMID: 24303006) supplemented with 25 ng/ml cholera toxin (Sigma-Aldrich®, St. Louis, MO). […]
(§2) Fixed cells were imaged with a 10× objective using an Operetta microscope and analyzed using the Columbus image data storage and analysis system (PerkinElmer®, Waltham, MA). […] The average LDR, EdU and phospho-histone H3 intensities within the nuclear masks were determined. […]

MCF10A cells = test: Image-based cell cycle assay in non-transformed mammary epithelial cells; conditions: data not shown
Method: as §1, §2

C=CCn1c(=O)c2cnc(Nc3ccc(N4CCN(CCCNc5cccc6c5C(=O)N(C5CCC(=O)NC5=O)C6=O)CC4)cc3)nc2n1-c1cccc(C(C)(C)O)n1 (stereo not drawn) [Compound 13, 4-((3-(4-(4-((2-allyl-1-(6-(2-hydroxypropan-2-yl)pyridin-2-yl)-3-oxo-2,3-dihydro-1H-pyrazolo[3,4-d]pyrimidin-6-yl)amino)phenyl)piperazin-1-yl)propyl)amino)-2-(2,6-dioxopiperidin-3-yl)isoindoline-1,3-dione]
Kinase engagement in KINOMEscan (kinome (Wee1, PLK1)): strong engagement of both Wee1 and PLK1 | Rescue of anti-proliferative activity, CRBN−/− versus WT MOLT4 cells (CRBN−/− MOLT4 cells; Example 28, FIG. 3A/3B, 72-hour): ~15 fold | Shift in cellular IC50, CRBN−/− versus parental MOLT4 cells (CRBN−/− MOLT4 cells; Example 32, FIG. 6A): approximately 6 fold | IC50 (CRBN−/− MOLT4 cells; Homo sapiens, MOLT-4, MOLT4 CRBN−/− cells, 72 hours, CellTiter-Glo, read-out: Antiproliferative IC50): 2220 nM | Changes in mitotic cell number (BT549 and HCC1806 cells): greater changes in mitotic cell number than AZD1775 | Effect on mitotic cell number (MCF10A cells): very little effect
